Data on 10 compounds can be found in patent publication EP0516034A1, “Pharmaceutical compositions with immunosuppresive properties” (FIDIA S.p.A., priority 1991, dated 1992).

Assay type in all cases: cell-based, human
Data set [1] has as its system PBMC. Put plainly: DNA synthesis ([3H]thymidine incorporation) in PHA-stimulated PBMC. To be noted: PBMC cultured 72 hours with PHA 1 µg/ml; for inhibition of DNA synthesis: result in words. The protocol: The PBMCs were obtained by standard density gradient centrifugation of heparinized human venous blood through a Ficoll-Hypaque cushion. The cells were composed of 90% lymphocytes and 10% monocytes as assessed by acridine orange staining.
DNA Synthesis. The cells were re-suspended in RPMI + 5% FCS and spread on 3072 Falcon microtiter plates at a density of 10⁵ cells in 0.2 ml of final volume. They were cultured for 72 hours at 37°C with PHA 1 µg/ml in the presence or absence of phospholipids. The cells were marked with 1 uCi/well of [³H]thymidine for the last 18 hours culture before being collected on filter paper and counted in a scintillation counter.

The next data set concerns IL-2 receptor. The experiment in a line: Flow cytometry of IL-2 receptor expression on PHA-stimulated PBMC. To be noted: 72 hours, PHA 1 µg/ml, PS 60 nmol/10⁶ cells; PHA alone 77%. The protocol:
(§1) To confirm the DNA synthesis parameter data obtained, a second lymphocyte activity parameter was analysed - the expression of the IL-2 and transferrin receptors on the cell membrane.
(§2) To this purpose, after incubation with PHA 1 µg/ml for 72 hours in the presence or absence of PS, the cells were stained with fluorescent monoclonal antibodies against the above receptor, and then analysed on a FAC Star (Beckton-Dickinson) flow cytometer equipped with an argon ion laser operating at 480 nm and 200 mw.
(§3) 10⁵ PBMC were cultured for 72 hours with PHA 1 µg/ml in the presence or absence of PS 60 nmol/10⁶ cells. Fluorescence intensity (receptor expression) and light diffusion (cell size) were measured using flow cytometry. The data are reported as percentage of cells located in the shown region.

Data set [2] relates to PBMC. The experiment in a line: Trypan blue exclusion test of cell viability. To be noted: PHA activated PBMC. The protocol: To exclude cytotoxic effect of used derivatives, cell viability (> 99%) was tested before, during, and after the incubation by the trypan blue exclusion test.
The subject of another data set is transferrin receptor. Put plainly: Flow cytometry of transferrin receptor expression on PHA-stimulated PBMC. To be noted: 72 hours, PHA 1 µg/ml, PS 60 nmol/10⁶ cells; PHA alone 54%. The protocol: as §1, §2, §3

In the case of `CCCCCCCCCCCCCCCC(=O)OC[C@H](COP(=O)(O)OC[C@H](N)C(=O)O)OC(=O)CCCCCCCCCCCCCCC` [dipalmitoyl PS, dipalmitoyl-PS, reference compound], the “inhibition of DNA synthesis” value in the data set on PBMC [1] is “do not inhibit DNA synthesis, but slightly stimulate it”.

In the case of “phosphatidylcolin [PC, reference compound]”, in the data set on PBMC [1], the “inhibition of DNA synthesis” value was “totally inactive”.

On to `CCCCCCCC/C=C\CCCCCCCC(=O)OC[C@H](COP(=O)(O)OC[C@H](N)C(=O)O)OC(=O)CCCCCCC/C=C\CCCCCCCC` [Dioleyl PS, dioleyl-PS], for which the “inhibition of DNA synthesis” value in the data set with PBMC [1] is “same activity as PS containing L-serine”.

In the case of phosphatidylserine [PS], the “lymphocytes expressing IL-2 receptors” value with IL-2 receptor is recorded as 15%. The Cell viability entry in the data set with PBMC [2] was “not affected”. Further, the “lymphocytes expressing transferrin receptors” value with transferrin receptor is recorded as 20%. In addition, the IC50 in the data set with PBMC [1] (corresponds to 30 nmol PS/10⁶ cells, read-out: 50% of the maximum effect, concentration of PS in the medium) amounted to 15 µM. In addition, the “50% of the maximum effect (inhibition of DNA synthesis)” value in the data set on PBMC [1] (phospholipid as liposomes) worked out at 30 nmol/10⁶ cells. For the same compound, in the data set on PBMC [1], the “inhibition of DNA synthesis” value is listed as “marked inhibition”.

Consider `CCCCCCCC/C=C\CCCCCCCCOCC(COCCCCCCCC/C=C\CCCCCCCC)OP(=O)(O)OC[C@H](N)C(=O)O` [PS-S10, 1,3-dioleylglycero-2-phosphoryl-L-serine], for which, in the data set with PBMC [1], the “inhibition of DNA synthesis” value is recorded as “same activity as PS containing L-serine”.

For the compound `CCCCCCCCCCCCCCCC(=O)OCC(COC(=O)CCCCCCCCCCCCCCC)OP(=O)(O)OC[C@H](N)C(=O)O` [PS-S1, 1,3-dipalmitoylglycero-2-phosphoryl-L-serine, reference compound], the “inhibition of DNA synthesis” value in the data set with PBMC [1] is “do not inhibit DNA synthesis, but slightly stimulate it”.

On to “phosphatidylglycerol [PG, reference compound]”, for which, in the data set on PBMC [1], the “inhibition of DNA synthesis” value was “totally inactive”.

`CCCCCCCCCCCCCC(=O)OC[C@H](COP(=O)(O)OC[C@H](N)C(=O)O)OC(=O)CCCCCCCCCCCCC` [dimyristoyl PS, dimyristoyl-PS, reference compound]: the “inhibition of DNA synthesis” value in the data set on PBMC [1] is recorded as “do not inhibit DNA synthesis, but slightly stimulate it”.

“phosphatidic acid [PA, reference compound]”: in the data set on PBMC [1], the “inhibition of DNA synthesis” value was “totally inactive”.

For phosphatidylinositol [PI], in the data set with PBMC [1], the “inhibition of DNA synthesis” value is “active”.
